From article PMC4890880 (ACS infectious diseases, 2016)
Read-outs that look alike come from different tables or passages of the source.

How the values were obtained:
HepG2-A16-CD81EGFP cells = details: for IC50: read-out: Tox_IC50, HepG2 cytotoxicity
[1] = tested on: Plasmodium berghei (Pb-Luc) exoerythrocytic-stage parasites; details: for normalized signal at concentration 0.000508053 / normalized signal at concentration 0.00152416 / normalized signal at concentration 0.00457247 / normalized signal at concentration 0.0137174 / normalized signal at concentration 0.0411523 / normalized signal at concentration 0.123457 / normalized signal at concentration 0.37037 / normalized signal at concentration 1.11111 / normalized signal at concentration 3.33333 / normalized signal at concentration 10: fraction of control; for IC50: read-out: PbLuc_IC50
[2] = sheet 2nd round, maximal inhibition in dose response
[3] = second series of columns (replicate)
[4] = first series of dose-response columns
[5] = sheet 2nd round, Broad compounds, dose response
[6] = second series of dose-response columns

C[C@@H]1CN([C@@H](C)CO)C(=O)c2ccccc2-c2ccccc2CO[C@@H]1CN(C)S(=O)(=O)Cc1ccccc1 [BRD-K06421369-001-01-0]
IC50 (HepG2-A16-CD81EGFP cells; sheet 2nd round): > 10 µM
Tox_max_inhibition (%) (HepG2-A16-CD81EGFP cells; [2]): 8.54%
normalized signal at concentration 0.000508053 ([1]; first series of columns): 1.055
normalized signal at concentration 0.00152416 ([1]; first series of columns): 1.041
normalized signal at concentration 0.00457247 ([1]; first series of columns): 0.8367
normalized signal at concentration 0.0137174 ([1]; first series of columns): 0.8756
normalized signal at concentration 0.0411523 ([1]; first series of columns): 0.8835
normalized signal at concentration 0.123457 ([1]; first series of columns): 1.014
normalized signal at concentration 0.37037 ([1]; first series of columns): 0.8794
normalized signal at concentration 1.11111 ([1]; first series of columns): 0.8244
normalized signal at concentration 3.33333 ([1]; first series of columns): 1.118
normalized signal at concentration 10 ([1]; first series of columns): 0.9941
IC50 ([1]; sheet 2nd round, Pb-Luc exoerythrocytic stage, 10-point dose response, top concentration 10): > 10 µM
normalized signal at concentration 0.000508053 [1, 3]: 0.9052
normalized signal at concentration 0.00152416 [1, 3]: 1.004
normalized signal at concentration 0.00457247 [1, 3]: 1.069
normalized signal at concentration 0.0137174 [1, 3]: 0.9457
normalized signal at concentration 0.0411523 [1, 3]: 0.8932
normalized signal at concentration 0.123457 [1, 3]: 1.033
normalized signal at concentration 0.37037 [1, 3]: 1.094
normalized signal at concentration 1.11111 [1, 3]: 1.104
normalized signal at concentration 3.33333 [1, 3]: 1.032
normalized signal at concentration 10 [1, 3]: 0.8304
PbLuc_max_inhibition (%) [1, 2]: 18%

O=C(C1CCOCC1)N1C[C@@H]2[C@H](c3ccccc31)[C@H](CO)N2C(=O)Cc1ccccn1 [BRD-K09790760-001-01-0]
IC50 (HepG2-A16-CD81EGFP cells; sheet "2nd round"): > 10 µM
Tox_max_inhibition (%) (HepG2-A16-CD81EGFP cells; sheet "2nd round"): 5%
normalised signal at concentration 0.000508053 (first series) ([1]; concentration 0.000508053, first series): 0.7162
normalised signal at concentration 0.000508053 (second series) ([1]; concentration 0.000508053, second series): 0.9348
normalised signal at concentration 0.00152416 (first series) ([1]; concentration 0.00152416, first series): 0.8009
normalised signal at concentration 0.00152416 (second series) ([1]; concentration 0.00152416, second series): 0.7622
normalised signal at concentration 0.00457247 (first series) ([1]; concentration 0.00457247, first series): 0.9824
normalised signal at concentration 0.00457247 (second series) ([1]; concentration 0.00457247, second series): 0.8311
normalised signal at concentration 0.0137174 (first series) ([1]; concentration 0.0137174, first series): 0.8823
normalised signal at concentration 0.0137174 (second series) ([1]; concentration 0.0137174, second series): 0.8539
normalised signal at concentration 0.0411523 (first series) ([1]; concentration 0.0411523, first series): 1.052
normalised signal at concentration 0.0411523 (second series) ([1]; concentration 0.0411523, second series): 0.8968
normalised signal at concentration 0.123457 (first series) ([1]; concentration 0.123457, first series): 0.7822
normalised signal at concentration 0.123457 (second series) ([1]; concentration 0.123457, second series): 0.8152
normalised signal at concentration 0.37037 (first series) ([1]; concentration 0.37037, first series): 0.9579
normalised signal at concentration 0.37037 (second series) ([1]; concentration 0.37037, second series): 1.035
normalised signal at concentration 1.11111 (first series) ([1]; concentration 1.11111, first series): 0.8507
normalised signal at concentration 1.11111 (second series) ([1]; concentration 1.11111, second series): 0.8044
normalised signal at concentration 3.33333 (first series) ([1]; concentration 3.33333, first series): 0.9897
normalised signal at concentration 3.33333 (second series) ([1]; concentration 3.33333, second series): 1.088
normalised signal at concentration 10 (first series) ([1]; concentration 10, first series of dose columns): 0.9272
normalised signal at concentration 10 (second series) ([1]; concentration 10, second series of dose columns): 0.9177
IC50 ([1]; sheet "2nd round", Broad compounds, dose response top concentration 10): > 10 µM
PbLuc_max_inhibition (%) ([1]; sheet "2nd round"): 28%

C[C@@H]1CN([C@H](C)CO)C(=O)c2cc(N(C)C)ccc2O[C@@H](C)CCCCO[C@@H]1CN(C)S(=O)(=O)c1ccc(F)cc1 [BRD-K12341671-001-01-5]
IC50 (HepG2-A16-CD81EGFP cells; sheet 2nd round): > 10 µM
Tox_max_inhibition (%) (HepG2-A16-CD81EGFP cells; [2]): 5%
normalized signal at concentration 10 [1, 4]: 0.50
normalized signal at concentration 0.000508053 ([1]; first series): 0.77
normalized signal at concentration 0.00152416 ([1]; first series): 1.03
normalized signal at concentration 0.00457247 ([1]; first series): 1.06
normalized signal at concentration 0.0137174 ([1]; first series): 0.89
normalized signal at concentration 0.0411523 ([1]; first series): 0.99
normalized signal at concentration 0.123457 ([1]; first series): 1.04
normalized signal at concentration 0.37037 ([1]; first series): 0.93
normalized signal at concentration 1.11111 ([1]; first series): 0.88
normalized signal at concentration 3.33333 ([1]; first series): 0.70
IC50 [1, 5]: > 10 µM
normalized signal at concentration 10 [1, 6]: 0.50
normalized signal at concentration 0.000508053 ([1]; second series): 0.88
normalized signal at concentration 0.00152416 ([1]; second series): 1.15
normalized signal at concentration 0.00457247 ([1]; second series): 0.85
normalized signal at concentration 0.0137174 ([1]; second series): 0.84
normalized signal at concentration 0.0411523 ([1]; second series): 0.98
normalized signal at concentration 0.123457 ([1]; second series): 0.98
normalized signal at concentration 0.37037 ([1]; second series): 0.92
normalized signal at concentration 1.11111 ([1]; second series): 0.85
normalized signal at concentration 3.33333 ([1]; second series): 0.80
PbLuc_max_inhibition (%) [1, 2]: 50%

C[C@H]1CN([C@@H](C)CO)C(=O)c2cc(C#Cc3ccccc3)cnc2O[C@H]1CN(C)C(=O)c1ccccc1 [BRD-K12503654-001-01-1]
IC50 (HepG2-A16-CD81EGFP cells; sheet 2nd round): > 10 µM
Tox_max_inhibition (%) (HepG2-A16-CD81EGFP cells; [2]): 5.33%
normalized signal at concentration 10 [1, 4]: 0.56
normalized signal at concentration 0.000508053 ([1]; first series): 1.00
normalized signal at concentration 0.00152416 ([1]; first series): 1.04
normalized signal at concentration 0.00457247 ([1]; first series): 1.07
normalized signal at concentration 0.0137174 ([1]; first series): 1.02
normalized signal at concentration 0.0411523 ([1]; first series): 1.04
normalized signal at concentration 0.123457 ([1]; first series): 0.97
normalized signal at concentration 0.37037 ([1]; first series): 0.92
normalized signal at concentration 1.11111 ([1]; first series): 1.13
normalized signal at concentration 3.33333 ([1]; first series): 0.83
IC50 [1, 5]: > 10 µM
normalized signal at concentration 10 [1, 6]: 0.51
normalized signal at concentration 0.000508053 ([1]; second series): 1.07
normalized signal at concentration 0.00152416 ([1]; second series): 0.85
normalized signal at concentration 0.00457247 ([1]; second series): 1.01
normalized signal at concentration 0.0137174 ([1]; second series): 0.97
normalized signal at concentration 0.0411523 ([1]; second series): 1.21
normalized signal at concentration 0.123457 ([1]; second series): 1.03
normalized signal at concentration 0.37037 ([1]; second series): 1.11
normalized signal at concentration 1.11111 ([1]; second series): 0.90
normalized signal at concentration 3.33333 ([1]; second series): 0.91
PbLuc_max_inhibition (%) [1, 2]: 49%

CC(C)[C@H]1COCn2nncc2CCCC(=O)N1 [BRD-K14350179-001-01-1]
IC50 (HepG2-A16-CD81EGFP cells; sheet 2nd round): > 10 µM
Tox_max_inhibition (%) (HepG2-A16-CD81EGFP cells; [2]): 5.35%
normalized signal at concentration 10 [1, 4]: 0.98
normalized signal at concentration 0.000508053 ([1]; first series): 0.82
normalized signal at concentration 0.00152416 ([1]; first series): 0.73
normalized signal at concentration 0.00457247 ([1]; first series): 0.94
normalized signal at concentration 0.0137174 ([1]; first series): 0.81
normalized signal at concentration 0.0411523 ([1]; first series): 0.80
normalized signal at concentration 0.123457 ([1]; first series): 0.97
normalized signal at concentration 0.37037 ([1]; first series): 0.84
normalized signal at concentration 1.11111 ([1]; first series): 0.77
normalized signal at concentration 3.33333 ([1]; first series): 0.76
IC50 [1, 5]: > 10 µM
normalized signal at concentration 10 [1, 6]: 1.05
normalized signal at concentration 0.000508053 ([1]; second series): 0.94
normalized signal at concentration 0.00152416 ([1]; second series): 1.04
normalized signal at concentration 0.00457247 ([1]; second series): 1.06
normalized signal at concentration 0.0137174 ([1]; second series): 0.87
normalized signal at concentration 0.0411523 ([1]; second series): 1.07
normalized signal at concentration 0.123457 ([1]; second series): 1.10
normalized signal at concentration 0.37037 ([1]; second series): 1.01
normalized signal at concentration 1.11111 ([1]; second series): 0.86
normalized signal at concentration 3.33333 ([1]; second series): 0.89
PbLuc_max_inhibition (%) [1, 2]: 27%
